Tested on: Streptococcus pyogenes (ATCC# 97-03 14289)
Experiment: Anti-microbial screen (percent inhibition of growth, OD 570 nm)
Type: cell-based
Conditions: Spy4H: Streptococcus pyogenes, read at 4 hours, OD 570 nm; Conc 0.1776 mg ml
Procedure: Streptococcus pyogenes (ATCC# 97-03 14289) was grown in Todd Hewitt Broth (THB) (Difco Laboratories #0492-17-6) overnight until reaching an optical density of (OD=0.636@570 nm) by reading 0.1 ml in a 96 well microtiter plate in a Molecular Devices Thermomax. This preparation was kept frozen as stocks in 30% v/v glycerol in 1.5 ml aliquots at […] until use. Prior to experiments, 6 ml aliquots were thawed and diluted into 50 ml 2×THB. 60 ul of this dilution was added to 92 wells of microtiter plate. To three wells THB (200 ul) was added to serve as a blank and a sterility control. Test compounds in DMSO and appropriate concentrations of DMSO were added to Growth/Solvent Controls at 0 time. Plates were read at 0 time at 570 nm in the Molecular Devices plate reader to obtain compounds correction factors for insoluble or colored compounds. Plates were read again at 4 hours.
Percent inhibition is calculated with the following formula:
Color correct=O.D. 0 hr - Blank 0 hr)-(Solvent Control Ohr - Blank 0 hr) [formula]

Row | SMILES | inhibition of growth at 177.6 µg/mL [%]
1 | COc1cccc(CN(Cc2ccc(O)cc2)/C(=N/c2cc(Cl)cc(Cl)c2)Sc2cccc(OC)c2)c1 [Cmpd 773] | 68.4
2 | COc1cccc(CCN(Cc2cccc(O)c2)/C(=N/c2ccc(F)c(Cl)c2)Sc2ccccc2)c1 [Cmpd 814] | 57.8
3 | Oc1cccc(CN(Cc2ccc(Cl)c(Cl)c2)/C(=N/c2ccc(C(F)(F)F)cc2)Sc2ccccc2)c1 [Cmpd 847] | 90.3
4 | Oc1cccc(CN(Cc2ccc(Cl)c(Cl)c2)/C(=N/c2cc(Cl)cc(Cl)c2)Sc2ccccc2)c1 [Cmpd 853] | 60.2
5 | O=[N+]([O-])c1ccccc1/N=C(\Sc1ccccc1)N(Cc1cccc(O)c1)Cc1ccc(Cl)c(Cl)c1 [Cmpd 866] | 60.8
6 | COc1ccc(C)cc1/N=C(\Sc1ccccc1)N(Cc1cccc(O)c1)Cc1ccc(Cl)c(Cl)c1 [Cmpd 869] | 62.2
7 | COc1cccc(CCN(Cc2ccc(O)cc2)/C(=N/c2ccc(F)c(Cl)c2)Sc2ccccc2)c1 [Cmpd 894] | 57.7
8 | COc1cccc(CCN(Cc2ccc(O)cc2)/C(=N/c2ccc(Cl)c([N+](=O)[O-])c2)Sc2ccccc2)c1 [Cmpd 903] | 95.7
9 | COc1cccc(S/C(=N\Cc2cccc(C)c2)N(CCc2ccc(F)cc2)Cc2cccc(O)c2)c1 [Cmpd 922] | 84.3
10 | COc1cccc(S/C(=N\c2cccc(F)c2)N(CCc2ccc(F)cc2)Cc2cccc(O)c2)c1 [Cmpd 923] | 63.9
11 | COc1cccc(S/C(=N\c2cccc(C(F)(F)F)c2)N(CCc2ccc(F)cc2)Cc2cccc(O)c2)c1 [Cmpd 926] | 96
12 | COc1cccc(S/C(=N\c2cc(Cl)cc(Cl)c2)N(CCc2ccc(F)cc2)Cc2cccc(O)c2)c1 [Cmpd 933] | 59.8
13 | COc1cccc(S/C(=N\c2ccc(F)c(Cl)c2)N(CCc2ccc(F)cc2)Cc2cccc(O)c2)c1 [Cmpd 934] | 94
14 | COc1cccc(S/C(=N\c2ccc(C)c(Cl)c2)N(CCc2ccc(F)cc2)Cc2cccc(O)c2)c1 [Cmpd 935] | 66.3
15 | COCCN(Cc1ccc(O)cc1)/C(=N\c1cc(Cl)cc(Cl)c1)Sc1ccc(C)cc1C [Cmpd 1053] | 66
16 | COCCN(Cc1ccc(O)cc1)/C(=N\c1ccc(Cl)c([N+](=O)[O-])c1)Sc1ccc(C)cc1C [Cmpd 1063] | 73.8
17 | COc1cccc(CN(Cc2ccc(O)cc2)/C(=N/c2cc(Cl)cc(Cl)c2)Sc2cccc(C)c2)c1 [Cmpd 1093] | 87.1
18 | COc1cccc(CN(Cc2ccc(O)cc2)/C(=N/c2ccc(Cl)c([N+](=O)[O-])c2)Sc2cccc(C)c2)c1 [Cmpd 1103] | 59.5

Row | SMILES | inhibition of growth at 177.6 µg/mL [%]
19 | COc1cccc(CN(Cc2ccc(O)cc2)/C(=N/c2cc(C)ccc2OC)Sc2cccc(C)c2)c1 [Cmpd 1109] | 57.8
20 | COc1cccc(CN(Cc2ccc(O)cc2)/C(=N/c2ccc(Cl)c(C(F)(F)F)c2)Sc2cccc(C)c2)c1 [Cmpd 1113] | 64.3
21 | Cc1cccc(S/C(=N/c2ccc(C(F)(F)F)cc2)N(Cc2ccccc2)Cc2cccc(O)c2)c1 [Cmpd 1127] | 88.6
22 | Cc1cccc(S/C(=N\c2cc(Cl)cc(Cl)c2)N(Cc2ccccc2)Cc2cccc(O)c2)c1 [Cmpd 1133] | 70.1
23 | Cc1cccc(S/C(=N/c2ccc(Cl)c([N+](=O)[O-])c2)N(Cc2ccccc2)Cc2cccc(O)c2)c1 [Cmpd 1143] | 97.1
24 | COc1ccc(C)cc1/N=C(\Sc1cccc(C)c1)N(Cc1ccccc1)Cc1cccc(O)c1 [Cmpd 1149] | 76
25 | Cc1cccc(S/C(=N/c2ccc(Cl)c(C(F)(F)F)c2)N(Cc2ccccc2)Cc2cccc(O)c2)c1 [Cmpd 1153] | 62.7
26 | Cc1cccc(S/C(=N\c2ccc(F)c(F)c2)N(Cc2ccccc2)Cc2cccc(O)c2)c1 [Cmpd 1156] | 59.5
27 | Cc1cccc(S/C(=N\Cc2ccc(F)cc2)N(CCc2ccc(Cl)cc2)Cc2ccc(O)cc2)c1 [Cmpd 1164] | 72.2
28 | Cc1cccc(S/C(=N\c2ccc(C(F)(F)F)cc2)N(CCc2ccc(Cl)cc2)Cc2ccc(O)cc2)c1 [Cmpd 1167] | 94.3
29 | Cc1cccc(S/C(=N\c2ccc(Cl)c([N+](=O)[O-])c2)N(CCc2ccc(Cl)cc2)Cc2ccc(O)cc2)c1 [Cmpd 1183] | 62.7
30 | Cc1ccc(S/C(=N\c2ccc(Cl)c(C(F)(F)F)c2)N(Cc2ccc(O)cc2)Cc2ccc(Cl)c(Cl)c2)cc1 [Cmpd 1233] | 61.5
31 | Cc1ccc(S/C(=N\Cc2ccccc2)N(Cc2cccc(O)c2)CC2CCCCC2)c(C)c1 [Cmpd 1241] | 68.2
32 | Cc1ccc(S/C(=N\c2ccc(F)c(Cl)c2)N(Cc2cccc(O)c2)CC2CCCCC2)c(C)c1 [Cmpd 1254] | 62.1
33 | CCc1ccc(/N=C(\Sc2ccc(C)cc2C)N(Cc2cccc(O)c2)CC2CCCCC2)cc1 [Cmpd 1260] | 57.3
34 | Cc1ccc(S/C(=N/c2ccc(F)c([N+](=O)[O-])c2)N(Cc2cccc(O)c2)CC2CCCCC2)c(C)c1 [Cmpd 1262] | 67.2
35 | Cc1ccc(S/C(=N\c2ccc(Cl)cc2)N(Cc2cccc(O)c2)CC2CCCCC2)c(C)c1 [Cmpd 1265] | 88.3

Same assay, conditions: Streptococcus pyogenes; Assay Spy4H; Conc 0.1776 mg ml; plates read at 570 nm at 0 time and at 4 hours

Row | SMILES | inhibition of growth at 177.6 µg/mL [%]
36 | COc1cccc(CN(Cc2ccc(O)cc2)/C(=N/c2ccc(C(F)(F)F)cc2)Sc2cccc(OC)c2)c1 [Cmpd 767] | 52.4
37 | COc1cccc(CN(Cc2ccc(O)cc2)/C(=N/c2ccc(Cl)c([N+](=O)[O-])c2)Sc2cccc(OC)c2)c1 [Cmpd 783] | 54.5
38 | COc1cccc(CN(Cc2ccc(O)cc2)/C(=N\c2ccc(Cl)c(C(F)(F)F)c2)Sc2cccc(OC)c2)c1 [Cmpd 793] | 52.4
39 | Cc1cccc(C/N=C(\Sc2ccccc2)N(Cc2cccc(O)c2)Cc2ccc(Cl)c(Cl)c2)c1 [Cmpd 842] | 49.3
40 | Oc1cccc(CN(Cc2ccc(Cl)c(Cl)c2)/C(=N/c2cccc(F)c2)Sc2ccccc2)c1 [Cmpd 843] | 53.4
41 | Oc1cccc(CN(Cc2ccc(Cl)c(Cl)c2)/C(=N/c2cccc(C(F)(F)F)c2)Sc2ccccc2)c1 [Cmpd 846] | 49.3
42 | Oc1cccc(CN(Cc2ccc(Cl)c(Cl)c2)/C(=N/c2cccc(Cl)c2)Sc2ccccc2)c1 [Cmpd 852] | 50
43 | Oc1cccc(CN(Cc2ccc(Cl)c(Cl)c2)/C(=N/c2ccc(F)c(Cl)c2)Sc2ccccc2)c1 [Cmpd 854] | 55.8
44 | COc1cccc(S/C(=N\c2ccc(C(F)(F)F)cc2)N(CCc2ccc(F)cc2)Cc2cccc(O)c2)c1 [Cmpd 927] | 49.4
45 | COc1cccc(/N=C(\Sc2cccc(OC)c2)N(CCc2ccc(F)cc2)Cc2cccc(O)c2)c1 [Cmpd 936] | 56.3
46 | COc1cccc(S/C(=N\c2ccc(Cl)c([N+](=O)[O-])c2)N(CCc2ccc(F)cc2)Cc2cccc(O)c2)c1 [Cmpd 943] | 50.8
47 | COc1cccc(S/C(=N/c2ccc(Cl)c(C(F)(F)F)c2)N(CCc2ccc(F)cc2)Cc2cccc(O)c2)c1 [Cmpd 953] | 54.2
48 | COCCN(Cc1ccc(O)cc1)/C(=N\c1ccccc1F)Sc1ccc(C)cc1C [Cmpd 1067] | 53
49 | COCCN(Cc1ccc(O)cc1)/C(=N\c1ccc(Cl)c(C(F)(F)F)c1)Sc1ccc(C)cc1C [Cmpd 1073] | 54.4
50 | COCCN(Cc1ccc(O)cc1)/C(=N\c1ccc(F)c(F)c1)Sc1ccc(C)cc1C [Cmpd 1076] | 55.1
51 | Cc1cccc(S/C(=N\c2ccc(Cl)c(Cl)c2)N(Cc2ccccc2)Cc2cccc(O)c2)c1 [Cmpd 1128] | 51.5
52 | Cc1cccc(S/C(=N\c2ccc(F)c(Cl)c2)N(Cc2ccccc2)Cc2cccc(O)c2)c1 [Cmpd 1134] | 53.6
53 | Cc1cccc(S/C(=N\c2ccccc2[N+](=O)[O-])N(Cc2ccccc2)Cc2cccc(O)c2)c1 [Cmpd 1146] | 56.4
54 | Cc1cccc(S/C(=N/c2ccc(OC(F)(F)F)cc2)N(Cc2ccccc2)Cc2cccc(O)c2)c1 [Cmpd 1155] | 49.4
55 | Cc1cccc(S/C(=N\c2ccccc2[N+](=O)[O-])N(CCc2ccc(Cl)cc2)Cc2ccc(O)cc2)c1 [Cmpd 1186] | 52.9
56 | Cc1cccc(S/C(=N\c2ccc(Cl)c(C(F)(F)F)c2)N(CCc2ccc(Cl)cc2)Cc2ccc(O)cc2)c1 [Cmpd 1193] | 53.6
57 | Cc1cccc(C/N=C(\Sc2ccc(C)cc2C)N(Cc2cccc(O)c2)CC2CCCCC2)c1 [Cmpd 1242] | 54.8
58 | Cc1ccc(S/C(=N\Cc2ccc(F)cc2)N(Cc2cccc(O)c2)CC2CCCCC2)c(C)c1 [Cmpd 1244] | 53.8
59 | Cc1ccc(S/C(=N\c2ccc(F)cc2F)N(Cc2cccc(O)c2)CC2CCCCC2)c(C)c1 [Cmpd 1245] | 53.8
60 | CCOc1ccc(/N=C(/Sc2ccc(C)cc2C)N(Cc2cccc(O)c2)CC2CCCCC2)cc1 [Cmpd 1261] | 51.9
61 | Cc1ccc(S/C(=N/c2ccc(Cl)c([N+](=O)[O-])c2)N(Cc2cccc(O)c2)CC2CCCCC2)c(C)c1 [Cmpd 1263] | 56.7
62 | Cc1ccc(S/C(=N/c2ccc(Cl)c(C(F)(F)F)c2)N(Cc2cccc(O)c2)CC2CCCCC2)c(C)c1 [Cmpd 1273] | 52.2

From US20040010036A1, “N,N, -Substituted s-Aryl-Isothioureas, N,N,N, -Substituted s-Aryl-Isothioureas and combinatorial libraries thereof” (priority 2002, published 2004)
